Results published in patent US20240109900A1, “AZABICYCLIC SHP2 INHIBITORS” (IRBM S.P.A., priority 2021, published 2024).
pIC50: −log10 of the molar value. Where two headings read alike, the source gives them in different places.

Key:
[1] = target: SHP-2 enzyme (Met1-Leu525) (Homo sapiens (Human), UniProt Q06124); experiment: SHP2 inhibition enzymatic assay; assay type: biochemical; conditions: 0.5 nM SHP-2 activated by 500 nM IRS1 peptide, 75 μM DiFMUP substrate; read-out: SHP2wt-IC50
Summary of the method: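 Compounds were preincubated 30 min with 0.5 nM SHP-2 (Met1-Leu525) plus 500 nM IRS1 activating peptide (pH 7.2 HEPES, 5 mM DTT), then 75 μM DiFMUP substrate reacted 30 min at room temperature. After bpV quench, DiFMUP fluorescence gave % inhibition; four-parameter logistic fit yielded IC50.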

[2] = tested on: ERK phosphorylation in KYSE-520 cells; experiment: Phospho-ERK cellular assay; assay type: cell-based; conditions: KYSE-520 cells, 2 h at 37° C., phospho-ERK1/2 (Thr202/Tyr204) TR-FRET, read-out: PERK IC50
Summary of the method: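 TR-FRET read-out of ERK1/2 Thr202/Tyr204 phosphorylation was taken after overnight antibody incubation at room temperature. Before that, KYSE-520 cells were treated 2 h at 37 °C with compound dilutions and lysed 30 min. Percent inhibition relative to vehicle and cell-free wells was fitted four-parametrically to give IC50.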

Sequence of SHP-2 enzyme (Met1-Leu525) (Q06124 1-525): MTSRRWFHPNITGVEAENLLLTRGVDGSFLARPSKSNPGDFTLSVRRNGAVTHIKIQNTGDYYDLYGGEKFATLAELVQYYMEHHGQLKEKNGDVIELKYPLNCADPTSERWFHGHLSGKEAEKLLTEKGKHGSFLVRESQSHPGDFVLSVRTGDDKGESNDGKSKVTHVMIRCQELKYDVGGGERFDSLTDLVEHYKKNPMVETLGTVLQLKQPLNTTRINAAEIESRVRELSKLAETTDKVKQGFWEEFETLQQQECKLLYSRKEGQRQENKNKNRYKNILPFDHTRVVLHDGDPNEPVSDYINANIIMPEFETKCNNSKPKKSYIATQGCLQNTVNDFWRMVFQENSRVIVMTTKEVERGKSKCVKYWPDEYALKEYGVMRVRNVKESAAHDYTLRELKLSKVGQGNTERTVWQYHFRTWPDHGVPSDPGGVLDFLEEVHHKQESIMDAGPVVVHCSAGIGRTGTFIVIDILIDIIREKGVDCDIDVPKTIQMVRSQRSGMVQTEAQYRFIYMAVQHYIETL

NC[C@]1(c2ccccc2F)[C@@H]2CCN(c3cnc4c(-c5ccnc(-c6cncnc6)c5Cl)n[nH]c4n3)C[C@@H]21 [Example 284, ((1S,6R,7R)-3-(3-(3-chloro-2-(pyrimidin-5-yl)pyridin-4-yl)-1H-pyrazolo[3,4-b]pyrazin-6-yl)-7-(2-fluorophenyl)-3-azabicyclo[4.1.0]heptan-7-yl)methanamine]
pIC50 [1]: > 6.30 | pIC50 ([2]; Homo sapiens, KYSE-520, 2 h): > 6.00

NC[C@]1(c2ccccc2F)[C@@H]2CCN(c3cnc4c(-c5ccc(-c6nn[nH]n6)cc5Cl)n[nH]c4n3)C[C@@H]21 [Example 285, ((1S,6R,7R)-3-(3-(2-chloro-4-(2H-tetrazol-5-yl)phenyl)-1H-pyrazolo[3,4-b]pyrazin-6-yl)-7-(2-fluorophenyl)-3-azabicyclo[4.1.0]heptan-7-yl)methanamine]
pIC50 [1]: > 6.30 | pIC50 ([2]; Homo sapiens, KYSE-520, 2 h): < 5.30

CN(C)C(=O)C1(CN)C2CCN(c3cnc4c(-c5ccc6nn(C)cc6c5Cl)n[nH]c4n3)CC21 (stereo not shown) [Example 286, 7-(aminomethyl)-3-(3-(4-chloro-2-methyl-2H-indazol-5-yl)-1H-pyrazolo[3,4-b]pyrazin-6-yl)-N,N-dimethyl-3-azabicyclo[4.1.0]heptane-7-carboxamide]
pIC50 [1]: > 6.30 | pIC50 ([2]; Homo sapiens, KYSE-520, 2 h): < 5.30

CNC(=O)C1(CN)C2CCN(c3cnc4c(-c5ccc6nn(C)cc6c5Cl)n[nH]c4n3)CC21 (stereo not shown) [Example 287, 7-(aminomethyl)-3-(3-(4-chloro-2-methyl-2H-indazol-5-yl)-1H-pyrazolo[3,4-b]pyrazin-6-yl)-N-methyl-3-azabicyclo[4.1.0]heptane-7-carboxamide]
pIC50 [1]: > 6.30 | pIC50 ([2]; Homo sapiens, KYSE-520, 2 h): > 6.00

Cn1c(=O)[nH]c2cc(-c3n[nH]c4nc(N5CC[C@@H]6[C@H](C5)[C@@]6(CN)c5ccccc5F)cnc34)ccc21 [Example 289, 5-(6-((1S,6R,7R)-7-(aminomethyl)-7-(2-fluorophenyl)-3-azabicyclo[4.1.0]heptan-3-yl)-1H-pyrazolo[3,4-b]pyrazin-3-yl)-1-methyl-1,3-dihydro-2H-benzo[d]imidazol-2-one]
pIC50 [1]: > 6.30 | pIC50 ([2]; Homo sapiens, KYSE-520, 2 h): > 6.00

NC[C@]1(c2ccccc2F)[C@@H]2CCN(c3cnc4c(-c5ccc6ncncc6c5)n[nH]c4n3)C[C@@H]21 [Example 290, ((1S,6R,7R)-7-(2-fluorophenyl)-3-(3-(quinazolin-6-yl)-1H-pyrazolo[3,4-b]pyrazin-6-yl)-3-azabicyclo[4.1.0]heptan-7-yl)methanamine]
pIC50 [1]: > 6.30 | pIC50 ([2]; Homo sapiens, KYSE-520, 2 h): > 6.00

Cn1cc2c(Cl)c(-c3n[nH]c4nc(N5CC[C@@H]6[C@H](C5)[C@@]6(CN)c5cc(F)cc(F)c5)cnc34)ccc2n1 [Example 291, ((1S,6R,7R)-3-(3-(4-chloro-2-methyl-2H-indazol-5-yl)-1H-pyrazolo[3,4-b]pyrazin-6-yl)-7-(3,5-difluorophenyl)-3-azabicyclo[4.1.0]heptan-7-yl)methanamine]
pIC50 [1]: > 6.30 | pIC50 ([2]; Homo sapiens, KYSE-520, 2 h): > 6.00

COc1cc(-c2n[nH]c3nc(N4CC[C@@H]5[C@H](C4)[C@@]5(CN)c4ccccc4F)cnc23)cc2[nH]c(=O)[nH]c12 [Example 292, 6-(6-((1S,6R,7R)-7-(aminomethyl)-7-(2-fluorophenyl)-3-azabicyclo[4.1.0]heptan-3-yl)-1H-pyrazolo[3,4-b]pyrazin-3-yl)-4-methoxy-1,3-dihydro-2H-benzo[d]imidazol-2-one]
pIC50 [1]: > 6.30 | pIC50 ([2]; Homo sapiens, KYSE-520, 2 h): < 5.30

NC[C@]1(c2ccccc2F)[C@@H]2CCN(c3cnc4c(-c5cccc6c5CCC(=O)N6)n[nH]c4n3)C[C@@H]21 [Example 293, 5-(6-((1S,6R,7R)-7-(aminomethyl)-7-(2-fluorophenyl)-3-azabicyclo[4.1.0]heptan-3-yl)-1H-pyrazolo[3,4-b]pyrazin-3-yl)-3,4-dihydroquinolin-2(1H)-one]
pIC50 [1]: > 6.30 | pIC50 ([2]; Homo sapiens, KYSE-520, 2 h): > 6.00

NC[C@]1(c2ccccc2F)[C@@H]2CCN(c3cnc4c(-c5ccc6cc[nH]c(=O)c6c5)n[nH]c4n3)C[C@@H]21 [Example 294, 7-(6-((1S,6R,7R)-7-(aminomethyl)-7-(2-fluorophenyl)-3-azabicyclo[4.1.0]heptan-3-yl)-1H-pyrazolo[3,4-b]pyrazin-3-yl)isoquinolin-1(2H)-one]
pIC50 [1]: > 6.30 | pIC50 ([2]; Homo sapiens, KYSE-520, 2 h): > 6.00

NC[C@]1(c2ccccc2F)[C@@H]2CCN(c3cnc4c(-c5ccc(-c6noc(O)n6)cc5Cl)n[nH]c4n3)C[C@@H]21 [Example 295, 3-(4-(6-((1S,6R,7R)-7-(aminomethyl)-7-(2-fluorophenyl)-3-azabicyclo[4.1.0]heptan-3-yl)-1H-pyrazolo[3,4-b]pyrazin-3-yl)-3-chlorophenyl)-1,2,4-oxadiazol-5-ol]
pIC50 [1]: > 6.30 | pIC50 ([2]; Homo sapiens, KYSE-520, 2 h): > 6.00

NC[C@]1(c2ccccc2F)[C@@H]2CCN(c3cnc4c(-c5ccc(-c6ccn[nH]6)cc5Cl)n[nH]c4n3)C[C@@H]21 [Example 296, ((1S,6R,7R)-3-(3-(2-chloro-4-(1H-pyrazol-5-yl)phenyl)-1H-pyrazolo[3,4-b]pyrazin-6-yl)-7-(2-fluorophenyl)-3-azabicyclo[4.1.0]heptan-7-yl)methanamine]
pIC50 [1]: > 6.30 | pIC50 ([2]; Homo sapiens, KYSE-520, 2 h): > 6.00

Cn1cc(-c2ccc(-c3n[nH]c4nc(N5CC[C@@H]6[C@H](C5)[C@@]6(CN)c5ccccc5F)cnc34)c(Cl)c2)cn1 [Example 297, ((1S,6R,7R)-3-(3-(2-chloro-4-(1-methyl-1H-pyrazol-4-yl)phenyl)-1H-pyrazolo[3,4-b]pyrazin-6-yl)-7-(2-fluorophenyl)-3-azabicyclo[4.1.0]heptan-7-yl)methanamine]
pIC50 [1]: > 6.30 | pIC50 ([2]; Homo sapiens, KYSE-520, 2 h): > 6.00

NC[C@]1(c2ccccc2F)[C@@H]2CCN(c3cnc4c(-c5ccc6[nH]c(=O)[nH]c6c5Cl)n[nH]c4n3)C[C@@H]21 [Example 302]
pIC50 [1]: > 6.30 | pIC50 [2]: > 6.00

NC[C@]1(c2cc(F)cc(F)c2)[C@@H]2CCN(c3cnc4c(-c5ccc6c(=O)[nH]ccc6c5F)n[nH]c4n3)C[C@@H]21 [Example 306, 6-(6-((1S,6R,7R)-7-(aminomethyl)-7-(3,5-difluorophenyl)-3-azabicyclo[4.1.0]heptan-3-yl)-1H-pyrazolo[3,4-b]pyrazin-3-yl)-5-fluoroisoquinolin-1(2H)-one]
pIC50 [1]: > 6.30 | pIC50 ([2]; Homo sapiens, KYSE-520, 2 h): > 6.00

NC[C@]1(c2ccccc2F)[C@@H]2CCN(c3cnc4c(-c5ccc6nc(C(F)(F)F)ncc6c5)n[nH]c4n3)C[C@@H]21 [Example 309, ((1S,6R,7R)-7-(2-fluorophenyl)-3-(3-(2-(trifluoromethyl)quinazolin-6-yl)-1H-pyrazolo[3,4-b]pyrazin-6-yl)-3-azabicyclo[4.1.0]heptan-7-yl)methanamine]
pIC50 [1]: > 6.30 | pIC50 ([2]; Homo sapiens, KYSE-520, 2 h): < 5.30

NC[C@]1(c2ccccc2F)[C@@H]2CCN(c3cnc4c(-c5ccc6c(c5Cl)NCCO6)n[nH]c4n3)C[C@@H]21 [Example 311]
pIC50 [1]: > 6.30 | pIC50 [2]: > 6.00

NC[C@]1(c2ccccc2F)[C@@H]2CCN(c3cnc4c(-c5ccc6c(c5)CCN6)n[nH]c4n3)C[C@@H]21 [Example 312, ((1S,6R,7R)-7-(2-fluorophenyl)-3-(3-(indolin-5-yl)-1H-pyrazolo[3,4-b]pyrazin-6-yl)-3-azabicyclo[4.1.0]heptan-7-yl)methanamine]
pIC50 [1]: > 6.30 | pIC50 ([2]; Homo sapiens, KYSE-520, 2 h): > 6.00

Cn1ccc2c(-c3n[nH]c4nc(N5CC[C@@H]6[C@H](C5)[C@@]6(CN)c5ccccc5F)cnc34)ccc(F)c2c1=O [Example 315, 5-(6-((1S,6R,7R)-7-(aminomethyl)-7-(2-fluorophenyl)-3-azabicyclo[4.1.0]heptan-3-yl)-1H-pyrazolo[3,4-b]pyrazin-3-yl)-8-fluoro-2-methylisoquinolin-1(2H)-one]
pIC50 [1]: > 6.30 | pIC50 ([2]; Homo sapiens, KYSE-520, 2 h): > 6.00

Cn1ccc2c(F)c(-c3n[nH]c4nc(N5CC[C@@H]6[C@H](C5)[C@@]6(CN)c5ccccc5F)cnc34)ccc2c1=O [Example 316, 6-(6-((1S,6R,7R)-7-(aminomethyl)-7-(2-fluorophenyl)-3-azabicyclo[4.1.0]heptan-3-yl)-1H-pyrazolo[3,4-b]pyrazin-3-yl)-5-fluoro-2-methylisoquinolin-1(2H)-one]
pIC50 [1]: > 6.30 | pIC50 ([2]; Homo sapiens, KYSE-520, 2 h): > 6.00

Cn1c(=O)n(C)c2c(Cl)c(-c3n[nH]c4nc(N5CC[C@@H]6[C@H](C5)[C@@]6(CN)c5ccccc5F)cnc34)ccc21 [Example 317, 5-(6-((1S,6R,7R)-7-(aminomethyl)-7-(2-fluorophenyl)-3-azabicyclo[4.1.0]heptan-3-yl)-1H-pyrazolo[3,4-b]pyrazin-3-yl)-4-chloro-1,3-dimethyl-1,3-dihydro-2H-benzo[d]imidazol-2-one]
pIC50 [1]: > 6.30 | pIC50 ([2]; Homo sapiens, KYSE-520, 2 h): > 6.00

Cn1c(=O)[nH]c2ccc(-c3n[nH]c4nc(N5CC[C@@H]6[C@H](C5)[C@@]6(CN)c5ccccc5F)cnc34)cc21 [Example 320, 6-(6-((1S,6R,7R)-7-(aminomethyl)-7-(2-fluorophenyl)-3-azabicyclo[4.1.0]heptan-3-yl)-1H-pyrazolo[3,4-b]pyrazin-3-yl)-1-methyl-1,3-dihydro-2H-benzo[d]imidazol-2-one]
pIC50 [1]: > 6.30 | pIC50 ([2]; Homo sapiens, KYSE-520, 2 h): > 6.00

NC[C@]1(c2ccccc2F)[C@@H]2CCN(c3cnc4c(-c5cc(F)c(O)c(F)c5)n[nH]c4n3)C[C@@H]21 [Example 322, 4-(6-((1S,6R,7R)-7-(aminomethyl)-7-(2-fluorophenyl)-3-azabicyclo[4.1.0]heptan-3-yl)-1H-pyrazolo[3,4-b]pyrazin-3-yl)-2,6-difluorophenol]
pIC50 [1]: > 6.30 | pIC50 ([2]; Homo sapiens, KYSE-520, 2 h): > 6.00
